Experimental data: patent US6573291B2, “Method and use” (Biovitrum AB, priority 2000, dated 2003)

Key:
RIN-m5F cells = assay: Inhibition of GLP-1 stimulated insulin release in RIN-m5F cells; format: cell-based; settings: for GLP-1 induced insulin release: 3 nM GLP-1, 1 h, compounds 0.1 μM to 30 μM, FIG. 3
Protocol: The RIN-m5F cells were grown as in Example 2. The cells were plated in 96-well plates (10,000 per well) at a density of 2×10^5 cells per ml and grown for 3 days. The culture medium was changed the day before the experiment. On the day of the experiment, the medium was removed and replaced with serum-free RPMI 1640 containing 0.1% bovine serum albumin (serum-free medium). Dilutions of compounds prepared in serum-free medium from 10 mM DMSO stock solutions to give final concentrations from 0.1 μM to 30 μM were added. The cells were stimulated with 3 nM GLP-1 in a total volume of 200 μl for 1 h and the concentration of insulin in the medium was measured in an ELISA (Mercodia AB). The insulin release in the presence of medium was 6.3±1.4 ng/ml and 10.5±1.4 ng/ml in the presence of 3 nM GLP-1.

human GLP-1 receptor = biological target: T1, human GLP-1 receptor (Homo sapiens, UniProt P43220); assay: Inhibition of 125I-GLP-1 binding to human recombinant GLP-1 receptors (SPA); settings: 125I-GLP-1, membranes of COS7 cells transfected with human GLP-1 receptor, Cheng-Prushoff equation; read-out: K1 value, inhibition of the binding of GLP-1 to its receptor
T1 construct: expressed in transfected cells; host or cells: COS7 cells (COShGLPr, clone #16)
T1 sequence (P43220 24-463): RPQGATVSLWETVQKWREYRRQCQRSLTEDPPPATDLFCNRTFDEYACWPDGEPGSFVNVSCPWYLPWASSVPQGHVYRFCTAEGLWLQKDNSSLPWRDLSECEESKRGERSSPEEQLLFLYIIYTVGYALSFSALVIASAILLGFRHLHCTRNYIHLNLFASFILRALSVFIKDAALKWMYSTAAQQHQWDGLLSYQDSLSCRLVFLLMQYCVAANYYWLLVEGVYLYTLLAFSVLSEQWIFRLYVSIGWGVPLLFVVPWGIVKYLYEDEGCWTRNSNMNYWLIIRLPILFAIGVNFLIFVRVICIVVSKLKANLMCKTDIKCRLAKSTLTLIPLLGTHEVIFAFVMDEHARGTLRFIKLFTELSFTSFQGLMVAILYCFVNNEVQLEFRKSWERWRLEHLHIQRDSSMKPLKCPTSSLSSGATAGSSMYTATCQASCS
Protocol: Wheatgerm agglutinin scintillation proximity assay (SPA) beads (500 mg) from Amersham (RPNQ 0001) were diluted into 50 ml of assay buffer (Assay buffer consisted of 150 mM NaCl, 10 mM MgCl2, 1 mM EDTA, and 20 mM HEPES, pH 7.4). The SPA beads were combined (1:1 v/v) with a crude membrane preparation from COS7 cells transfected with the human GLP-1 receptor at a concentration of 30 μg/ml/well. These cells (COShGLPr, clone #16) were grown in Dulbecco's Modified Eagle Medium with high glucose (DMEM Gibco, #11965-092) supplemented with 10% heat-inactivated fetal bovine serum (Gibco, #1600-044), 2 mM L-Glutamine (Gibco #25030-081), and 10 μg/ml Gentamicin (Gibco #15710-064) with 705 μg/ml Geneticin (G418 sulfate, Gibco) (DMEM complete). The mixture was incubated for two hours at room temperature with constant rotation. The free membranes were washed away by centrifuging the mixture for 5 minutes at 800 rpm in a table-top GLCl (Sorvall) centrifuge. The supernatant was discarded and the pellet was resuspended in 50 ml assay buffer+0.1% bovine serum albumin. […] The plates were counted approximately 10 h later in a Microbeta Trilux liquid scintillation counter (WALLAC). […] Binding constants (Ki) were calculated with the Cheng-Prushoff equation (Cheng Y C and Prushoff W H, Biochem Pharmacol 22:3099, 1973). […]

[1] = biological target: T2, endogenous GLP-1 receptor coupled to adenylate cyclase (Rattus norvegicus, UniProt P32301); assay: Inhibition of GLP-1 induced cAMP signaling in RIN-m5F insulinoma cells; format: cell-based; settings: 3 nM GLP-1, 15 minutes, FIG. 2
T2 construct: host or cells: RIN-m5F insulinoma cells
T2 sequence (P32301 22-463): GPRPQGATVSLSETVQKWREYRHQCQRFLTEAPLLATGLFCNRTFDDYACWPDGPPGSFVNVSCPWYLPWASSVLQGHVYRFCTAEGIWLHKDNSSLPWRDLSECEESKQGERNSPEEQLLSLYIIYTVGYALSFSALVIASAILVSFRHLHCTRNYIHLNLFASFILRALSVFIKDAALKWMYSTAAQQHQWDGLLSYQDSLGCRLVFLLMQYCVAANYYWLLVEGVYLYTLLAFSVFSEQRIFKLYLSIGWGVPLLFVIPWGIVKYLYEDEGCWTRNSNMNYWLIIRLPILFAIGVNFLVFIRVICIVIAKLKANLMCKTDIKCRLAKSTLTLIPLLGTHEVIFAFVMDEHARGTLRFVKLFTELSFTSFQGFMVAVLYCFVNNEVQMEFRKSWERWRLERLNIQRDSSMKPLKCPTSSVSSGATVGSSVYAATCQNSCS
Protocol: The cells were obtained from the American Type Culture Collection (ATCC, #203641 F13132) and grown in RPMI 1640 (GIBCO, #21870-076) supplemented with 2 mM L-glutamine, 10% heat inactivated fetal bovine serum, and 10 μg/ml Gentamicin.
RIN-m5F cells were plated in 12 well plates at a density of 2.0×10^5 cells per ml and grown for 4 days in complete RPMI 1640 with 10% fetal bovine serum; the medium was changed the day before experiment. The cells were from 70-90% confluent at the time of the experiment. On the day of the experiment, the incubation medium was removed and the cells were washed with fresh serum-free RPMI 1640 containing 0.1% bovine serum albumin (serum-free medium). One ml DMEM complete with 1 mM 3-isobutyl-1-methylxanthine (Sigma) was added and the plates were placed at 37° C. and 5.0% CO2 for 15 minutes before initiation of the experiment. Fresh compounds were acquired and dissolved as 10 mM solutions in DMSO. A further 1:10 dilution was prepared in DMEM and after the incubation period, the compounds were added to the wells at 30 μM final concentration. The final concentration of DMSO was always 0.3%. The wells were treated with or without GLP-1 (3 nM). The plates were then incubated at 37° C. and 5.0% CO2 for 15 minutes. […] The solution was mixed well and quantitatively transferred to microcentrifuge tubes with 1 wash of 0.5 ml of the 50 mM NaOH solution. […]

Row | Compound | GLP-1 induced insulin release (RIN-m5F cells) | Ki (human GLP-1 receptor) | GLP-1 stimulated cAMP production [1] | insulin release (RIN-m5F cells; in the presence of 3 nM GLP-1 alone, 1 h (medium 6.3±1.4 ng/ml))
1 | Cc1nn(C)c(/C=C/Nc2cc(Cl)ccc2O)c1[N+](=O)[O-] [Compound A, 4-chloro-2-{[(E)-2-(1,3-dimethyl-4-nitro-1H-pyrazol-5-yl)ethenyl]amino}phenol] | substantial reduction of the GLP-1 induced insulin release | ~1 µM | concentration dependently decreased GLP-1 stimulated cAMP production to a level close to that obtained in the absence of GLP-1 | –
2 | Cc1nn(C)c(/C=C/Nc2ccc(F)cc2)c1[N+](=O)[O-] [Compound B, 4-fluoro-1-{[(E)-2-(1,3-dimethyl-4-nitro-1H-pyrazol-5-yl)ethenyl]amino}benzene] | substantial reduction of the GLP-1 induced insulin release | – | – | –
3 | Cc1nn(C)c(/C=C/Nc2ccc(OC(F)(F)F)cc2)c1[N+](=O)[O-] [Compound C, 4-trifluoromethoxy-1-{[(E)-2-(1,3-dimethyl-4-nitro-1H-pyrazol-5-yl)ethenyl]amino}benzene] | substantial reduction of the GLP-1 induced insulin release | – | – | –
4 | COc1ccc(N/C=C/c2c([N+](=O)[O-])c(C)nn2C)c(OC)c1 [Compound D, 2,4-dimethoxy-1-{[(E)-2-(1,3-dimethyl-4-nitro-1H-pyrazol-5-yl)ethenyl]amino}benzene] | substantial reduction of the GLP-1 induced insulin release | – | – | –
5 | Glucagon-like peptide 1(7-36)amide [GLP-1, reference compound] | – | – | – | 10.5 ± 1.4 ng/mL
